“And” between values parts separate entries of the source, which are not always exact repeats. Equal values may be shown once. “Also recorded” adds a separate entry of the source. Marks after values point to notes of the source that are not given here.
System: human subjects
Experiment: 60 mg once daily for seven days, adverse events in humans (MAD)
Format: in vivo
Details: for AE Sleepiness (Nervous system disorders): listed three times in the table; for AE Headache (Nervous system disorders): listed twice in the table
Method: The effects of CV-10155 in relation to administration at different times of the day and states of feeding were analyzed in humans. Subjects were given 60 mg CV-10155 orally once per day for seven consecutive days, and plasma concentrations were measured at various time points. Doses were administered either in the morning to fasted subjects or in the evening to fed subjects.
Adverse events observed following administration of a single dose of CV-10155 in the evening in a fed state are summarized on Table 6.
A comparison of adverse events observed following administration to fasted subjects in the morning and to fed subjects in the evening is provided in Table 7.
The tolerability of the neurosteroids CV-10155, Sage-217, and Praxis-114 in human subjects were compared. The results from subjects that received 45 mg Praxis-114 in the evening, 60 mg Praxis-114 in the evening, 80 mg Praxis-114 in the evening, or 60 mg CV-10155 in the evening are provided in Table 8, and the results form subjects that received 30 mg Sage-217 or 20 mg Sage-217 are provided in Table 9.

[1] = 60 mg, evening, fed state, N = 9
[2] = 60 mg, morning, fasted state, N = 9
[3] = HV, 60 mg evening dosing, n = 12
[4] = human, 60 mg, evening, fed state, one line per subject and event

C[C@@]1(O)CC[C@@]2(C)[C@@H](CC[C@@H]3[C@@H]2CC[C@]2(C)[C@@H](C(=O)Cn4cc(C#N)cn4)CC[C@@H]32)C1 [CV-10155, 1-[2-[(3R,5S,8R,9S,10S,13S,14S,17S)-3-hydroxy-3,10,13-trimethyl-1,2,4,5,6,7,8,9,11,12,14,15,16,17-tetradecahydrocyclopenta[a]phenanthren-17-yl]-2-oxoethyl]pyrazole-4-carbonitrile]
AE Back pain (Musculoskeletal and connective tissue disorders) [1]: 1 #
AE Bloating (Gastrointestinal disorders) [1]: 1 #
AE Dizziness (Nervous system disorders) [1]: 1 #
AE Sleepiness (Nervous system disorders) [1]: 1 #
AE Headache (Nervous system disorders) [1]: 2 #
AE Dizziness (Nervous system disorders) [2]: 1 #
AE Feeling sleepy (Nervous system disorders) [2]: 1 #
AE Feeling tired (General disorders and administration site conditions) [2]: 2 #
AE Tiredness (General disorders and administration site conditions) [2]: 3 #
AE Sleepiness (Nervous system disorders) [2]: 9 #
AE Headache (Nervous system disorders) [2]: 2 #
Dizziness, AEs % of subjects [3]: 16.7%
Headache, AEs % of subjects [3]: 8.3%
Somnolence, AEs % of subjects [3]: 8.3%
AE (per subject) [4]: Dizziness; also recorded: Headache; also recorded: Somnolence; also recorded: Back pain; also recorded: Abdominal
AE duration [4]: 20.50 h and 13.00 h and 14.50 h and 10.62 h and 39.25 h and 13.25 h and 06.50 h
AE onset from dose [4]: pre-dose
AE severity [4]: Mild (6×) and Moderate
adverse effects that interfere with sleeping (human, oral administration in the evening to fed subjects): does not produce adverse effects that interfere with sleeping
